Five substances from patent US20060051358A1, “Immune response assessment method” (Baylor Research Institute, priority 2004, published 2006) can be followed below.

Holding throughout (format): cell-based, human
For test [1], the system named is CFSE-labeled CD4+ T cells and allogeneic mature DCs. In words: Third party MLR suppression assay in transwells. The following applies: patient's PBMC stimulated with peptide added in transwells. As to the method: (§1) FIGS. 29A-D are graphs that depict the immune response of a melanoma patients as evaluated according the present invention. PBMCs obtained from a melanoma patient were stimulated with clusters of peptides or individual peptides encoding NY-ESO1. IL-10 levels in culture supernatant at 48 hours of culture are shown (FIG. 29A). […] To explore the origin of IL-10 production, the PBMCs were stimulated with peptide#39 in the presence of anti CD28/CD49d mAbs and monensin for 8 hours, and stained with IL-10 specific mAb. […] Next, to evaluate whether this IL-10 producing T cells had regulatory properties, PBMCs stimulated with peptide #39 or irrelevant 15-mer peptide were added in transwells to a “third party” MLR to test suppression of T cell expansion by the release of soluble mediators. The MLR used CFSE-labeled CD4^+T cells and allogeneic mature DCs, both from healthy volunteers, in order to avoid the effect of peptide-specific T cell response.

In test [2] the test system is PBMCs obtained from melanoma patients. In words: EPIMAX: PBMC culture with peptides or peptide clusters, multiplex bead cytokine assay (Luminex).
The subject of test [3] is T cells in melanoma patient PBMCs. In words: Intracellular cytokine detection assay (flow cytometry). The following applies: 8 hours with anti CD28/CD49d mAbs and monensin. As to the method:
FIG. 12A is a graph that depicts the immune response of a melanoma patient as evaluated according the present invention. PBMCs obtained before DC vaccination and post 8 DC vaccinations from a melanoma patient (same as FIG. 10) were stimulated with single 15-mer MART-1 peptides or diluent. The levels of IL-1a and IP-10 in the culture supernatants at 48 h of culture are shown. […] To examine this hypothesis, we used a different well-established methodology, intracellular cytokine detection assay. The same PBMCs were stimulated for 8 h with MART-1 15-mer single peptides in the presence of anti-CD28/CD49d mAb and monensin. After permeabilization of the cell membrane, the cells were stained with anti-IFN-γ mAb and the IFN-γ+ populations were analyzed with a flowcytometer (FIG. 12B).
The same patient's PBMCs were stimulated for 8 hours with MART-1 15-mer peptide#10 in the presence of antiCD28/CD49d mAb and monensin. The production of IL-2 were analyzed by staining with specific mAbs.
The same patient's PBMCs were stimulated for 8 hours with MART-1 15-mer peptide#11 in the presence of antiCD28/CD49d mAb and monensin. The production of IL-5 were analyzed by staining with specific mAbs.
as §1

For test [4], the system named is CD4+ / CD8+ T cells in melanoma patient PBMCs. The experiment in a line: CFSE dilution T cell proliferation assay, melanoma patient PBMCs. Conditions: epitopes for Th0, Th1, Th2 cells; patient 094-012, Post.
The test system is the same in test [5]. The description is as above. Conditions: epitopes for Th0, Th1, Th2 cells. An excerpt:
FIG. 13 depicts the immune response of a melanoma patient as evaluated according the present invention. CFSE (5,6-carboxyfluorescein diacetate succinimidyl ester) is a tracer dye that permits to identify the number of cell division with a flowcytometer. As EPIMAX is a non-destructive assay, we combined with EPIMAX and CFSE technology to determine the proliferative capacity of antigen-specific T cells. […] PBMCs obtained from the same melanoma patient (same as FIG. 10) were first stained with 1 uM of CFSE, and stimulated with either clusters of overlapping peptides or individual peptides encoding MART-1. On day 8 of culture, the cells were stained with CD8-PE, CD3-PerCP, and CD4-APC, and analyzed T cell proliferation in response to peptide stimulation.
FIG. 14 depicts the immune response of a melanoma patient as evaluated according the present invention. PBMCs obtained from the same melanoma patient (same as FIG. 10) were first stained with 1 μM of CFSE, and stimulated with individual peptides encoding MART-1 in triplicates. On day 8 of culture, the cells were stained with CD8-PE, CD3-PerCP, and CD4-APC, and analyzed T cell proliferation in response to peptide stimulation.
FIGS. 21A-B depicts the immune response of a melanoma patient as evaluated according the present invention. PBMCs obtained from the same melanoma patient (same as FIG. 19) were first stained with 1 μM of CFSE, and stimulated with individual peptides encoding MART-1 in triplicates. On day 8 of culture, the cells were stained with CD8-PE, CD3-PerCP, and CD4-APC, and analyzed T cell proliferation in response to peptide stimulation. […] FIG. 21B depicts the CFSE-diluted CD4+ T cell populations in response to each MART-1 15-mer peptide within the CD4^+ T cell population.
FIGS. 22 A-C depicts the immune response of a melanoma patient as evaluated according the present invention. PBMCs obtained from a HLA-A2^neg melanoma patient who received DC vaccinations were first stained with 1 μM of CFSE, and stimulated with clusters of peptides encoding NY-ESO1. On day 8 of culture, the cells were stained with CD8-PE, CD3-PerCP, and CD4-APC, and analyzed T cell proliferation in response to peptide stimulation was analyzed based on CFSE dilution with a flowcytometer. […] FIG. 22B depicts the IL-2 levels in the culture supernatant at 48 hours of culture. […] To identify the epitope for CD4+ T cells, CFSE-stained PBMCs were stimulated with individual peptides within NY-ESO1 cluster#8. The proliferating CD4+ T cells were analyzed based on CFSE dilution with a flowcytometer on day 8.

Where [6] appears, read: epitopes for Th0, Th1, Th2 cells, patient 094-012, Post.

Consider “NY-ESO1 p39: 15-mer of NY-ESO1 library, residues 153-167 (LQQLSLLMWITQCFL; UniProt P78358 153-167, looked up, fragment)”, for which, in test [1], the “proliferation in third party MLR” value was “significantly suppressed proliferation in the MLR”. In addition, the Type of response in test [2] (epitopes for CD8+ T cells, patient 094-007, Post) came to 1; in test [2] (epitopes for CD8+ T cells, patient 094-007, Pre), 1. Moreover, the “CD4+ T cells producing IL-10” value in test [3] was “about 0.11%”.

“gp100 p40: 15-mer of gp100 library, residues 157-171 (GQYWQVLGGPVSGLS; UniProt P40967 157-171, looked up, fragment)”: the Type of response in test [2] (setting [6]) is reported as 2. Further, in test [4], the proliferation result is “Yes”.

Consider “gp100 p71: 15-mer of gp100 library, residues 281-295 (LEPGPVTAQVVLQAA; UniProt P40967 281-295, looked up, fragment)”, for which, in test [2] (setting [6]), the Type of response is 2. The proliferation result in test [4] is “Yes”.

Substance “gp100 p78: 15-mer of gp100 library, residues 309-323 (TTDGHRPTAEAPNTT; UniProt P40967 309-323, looked up, fragment)” returned a Type of response in test [2] (setting [6]) of 2. For the same substance, the proliferation entry in test [4] was “Yes”.

On to “gp100 p152: 15-mer of gp100 library, residues 605-619 (VLMAVVLASLIYRRR; UniProt P40967 605-619, looked up, fragment)”, for which the Type of response in test [2] (epitopes for Th0, Th1, Th2 cells, patient 094-009, Post) was 0; in test [2] (setting [6]), 2; in test [2] (epitopes for Th0, Th1, Th2 cells, patient 094-015, Post), 0. The “CD4+ T cell epitope identification (cytokines at 48 h, CFSE dilution day 8)” value in test [2] (two melanoma patients, peptides of TRP-1 cluster#25 or gp100 cluster#15) was “are epitopes for CD4^+ T cells”. Also, the proliferation entry in test [5] (patient 094-009, Post) is “Yes”; in test [5] (patient 094-015, Post) it was “Yes”; in test [4], “Yes”.
